Data as given in patent US9347057B2, “Methods for efficient, expansive user-defined DNA mutagenesis” (THE JOHNS HOPKINS UNIVERSITY, priority 2012, dated 2016).

Legend:
Assay type in all cases: cell-based, E. coli
Details in all cases: Escherichia coli
TEM-1 R244S allele = test: MIC assay on agar plates, TEM-1 allele R244S
Description: (§1) Selected single base mutations were re-introduced into TEM-1 by site-directed PFunkel mutagenesis on the 20 μL volume scale. The MIC for ampicillin and piperacillin of the mutants was assessed with and without 6 μg/mL tazobactam by spotting 10^4 CFU on Mueller-Hinton agar plates containing 50 μg/mL Spec, 300 μM IPTG, and √2-fold increments of either ampicillin or piperacillin. Plates were incubated at 37° C. for 12 hrs.

TEM-1 S235T allele = test: MIC assay on agar plates, TEM-1 allele S235T
Description: as §1

TEM-1 Y105D allele = test: MIC assay on agar plates, TEM-1 allele Y105D
Description: as §1

TEM-1 Y105S allele = test: MIC assay on agar plates, TEM-1 allele Y105S
Description: as §1

TEM-1 Y105N allele = test: MIC assay on agar plates, TEM-1 allele Y105N
Description: as §1

[1] = test system: wildtype TEM-1 (allele: none); test: MIC assay on agar plates, cells with TEM-1 (no mutation)
Description: as §1

TEM-1 M69L allele = test: MIC assay on agar plates, TEM-1 allele M69L
Description: as §1

TEM-1 N276D allele = test: MIC assay on agar plates, TEM-1 allele N276D
Description: as §1

[2] = + tazobactam 6 μg/mL, median of three replicates
[3] = + tazobactam 6 μg/mL, replicate 1
[4] = + tazobactam 6 μg/mL, replicate 2
[5] = + tazobactam 6 μg/mL, replicate 3
[6] = − tazobactam, median of three replicates

CC1(C)S[C@@H]2[C@H](NC(=O)[C@H](N)c3ccccc3)C(=O)N2[C@H]1C(=O)O [ampicillin]
MIC (TEM-1 R244S allele; [2]): 90.5 µg/mL
MIC (TEM-1 R244S allele; [3]): 64 µg/mL
MIC (TEM-1 R244S allele; [4]): 128 µg/mL
MIC (TEM-1 R244S allele; [5]): 90.5 µg/mL
MIC (TEM-1 R244S allele; [6]): 4100 µg/mL
MIC (TEM-1 R244S allele; − tazobactam, replicate 1): 2900 µg/mL
MIC (TEM-1 R244S allele; − tazobactam, replicate 2): 4100 µg/mL
MIC (TEM-1 R244S allele; − tazobactam, replicate 3): 4100 µg/mL
MIC (TEM-1 S235T allele; [2]): 362 µg/mL
MIC (TEM-1 S235T allele; [3]): 256 µg/mL
MIC (TEM-1 S235T allele; [4]): 362 µg/mL
MIC (TEM-1 S235T allele; [5]): 512 µg/mL
MIC (TEM-1 S235T allele; [6]): 8190 µg/mL
MIC (TEM-1 S235T allele; − tazobactam, replicate 1): 8190 µg/mL
MIC (TEM-1 S235T allele; − tazobactam, replicate 2): 8190 µg/mL
MIC (TEM-1 S235T allele; − tazobactam, replicate 3): 8190 µg/mL
MIC (TEM-1 Y105D allele; [2]): 256 µg/mL
MIC (TEM-1 Y105D allele; [3]): 256 µg/mL
MIC (TEM-1 Y105D allele; [4]): 256 µg/mL
MIC (TEM-1 Y105D allele; [5]): 362 µg/mL
MIC (TEM-1 Y105D allele; [6]): 1450 µg/mL
MIC (TEM-1 Y105D allele; − tazobactam, replicate 1): 1450 µg/mL
MIC (TEM-1 Y105D allele; − tazobactam, replicate 2): 1450 µg/mL
MIC (TEM-1 Y105D allele; − tazobactam, replicate 3): 1450 µg/mL
MIC (TEM-1 Y105S allele; [2]): 1020 µg/mL
MIC (TEM-1 Y105S allele; [3]): 724 µg/mL
MIC (TEM-1 Y105S allele; [4]): 1020 µg/mL
MIC (TEM-1 Y105S allele; [5]): 1020 µg/mL
MIC (TEM-1 Y105S allele; [6]): 2900 µg/mL
MIC (TEM-1 Y105S allele; − tazobactam, replicate 1): 2900 µg/mL
MIC (TEM-1 Y105S allele; − tazobactam, replicate 2): 2900 µg/mL
MIC (TEM-1 Y105S allele; − tazobactam, replicate 3): 2900 µg/mL
MIC (TEM-1 Y105N allele; [2]): 1450 µg/mL
MIC (TEM-1 Y105N allele; [3]): 148 µg/mL
MIC (TEM-1 Y105N allele; [4]): 1450 µg/mL
MIC (TEM-1 Y105N allele; [5]): 1450 µg/mL
MIC (TEM-1 Y105N allele; [6]): 5790 µg/mL
MIC (TEM-1 Y105N allele; − tazobactam, replicate 1): 4100 µg/mL
MIC (TEM-1 Y105N allele; − tazobactam, replicate 2): 5790 µg/mL
MIC (TEM-1 Y105N allele; − tazobactam, replicate 3): 5790 µg/mL
MIC [1, 2]: 22.6 µg/mL
MIC [1, 3]: 16 µg/mL
MIC [1, 4]: 22.6 µg/mL
MIC [1, 5]: 22.6 µg/mL
MIC [1, 6]: 8190 µg/mL
MIC ([1]; − tazobactam, replicate 1): 8190 µg/mL
MIC ([1]; − tazobactam, replicate 2): 8190 µg/mL
MIC ([1]; − tazobactam, replicate 3): 8190 µg/mL
MIC (TEM-1 M69L allele; [2]): 724 µg/mL
MIC (TEM-1 M69L allele; [3]): 512 µg/mL
MIC (TEM-1 M69L allele; [4]): 724 µg/mL
MIC (TEM-1 M69L allele; [5]): 724 µg/mL
MIC (TEM-1 M69L allele; [6]): 8190 µg/mL
MIC (TEM-1 M69L allele; − tazobactam, replicate 1): 5790 µg/mL
MIC (TEM-1 M69L allele; − tazobactam, replicate 2): 8190 µg/mL
MIC (TEM-1 M69L allele; − tazobactam, replicate 3): 8190 µg/mL
MIC (TEM-1 N276D allele; [2]): 90.5 µg/mL
MIC (TEM-1 N276D allele; [3]): 90.5 µg/mL
MIC (TEM-1 N276D allele; [4]): 90.5 µg/mL
MIC (TEM-1 N276D allele; [5]): 128 µg/mL
MIC (TEM-1 N276D allele; [6]): 8190 µg/mL
MIC (TEM-1 N276D allele; − tazobactam, replicate 1): 8190 µg/mL
MIC (TEM-1 N276D allele; − tazobactam, replicate 2): 8190 µg/mL
MIC (TEM-1 N276D allele; − tazobactam, replicate 3): 8190 µg/mL

CCN1CCN(C(=O)N[C@@H](C(=O)N[C@@H]2C(=O)N3[C@@H]2SC(C)(C)[C@@H]3C(=O)O)c2ccccc2)C(=O)C1=O [piperacillin]
MIC (TEM-1 R244S allele; [2]): 2 µg/mL
MIC (TEM-1 R244S allele; [3]): 2 µg/mL
MIC (TEM-1 R244S allele; [4]): 2.83 µg/mL
MIC (TEM-1 R244S allele; [5]): 2 µg/mL
MIC (TEM-1 R244S allele; [6]): 1450 µg/mL
MIC (TEM-1 R244S allele; − tazobactam, replicate 1): 1020 µg/mL
MIC (TEM-1 R244S allele; − tazobactam, replicate 2): 1450 µg/mL
MIC (TEM-1 R244S allele; − tazobactam, replicate 3): 1450 µg/mL
MIC (TEM-1 S235T allele; [2]): 22.6 µg/mL
MIC (TEM-1 S235T allele; [3]): 32 µg/mL
MIC (TEM-1 S235T allele; [4]): 16 µg/mL
MIC (TEM-1 S235T allele; [5]): 22.6 µg/mL
MIC (TEM-1 S235T allele; [6]): 2900 µg/mL
MIC (TEM-1 S235T allele; − tazobactam, replicate 1): 2900 µg/mL
MIC (TEM-1 S235T allele; − tazobactam, replicate 2): 2900 µg/mL
MIC (TEM-1 S235T allele; − tazobactam, replicate 3): 2900 µg/mL
MIC (TEM-1 Y105D allele; [2]): 1 µg/mL
MIC (TEM-1 Y105D allele; [3]): 1 µg/mL
MIC (TEM-1 Y105D allele; [4]): 1 µg/mL
MIC (TEM-1 Y105D allele; [5]): 1 µg/mL
MIC (TEM-1 Y105D allele; [6]): 1.4 µg/mL
MIC (TEM-1 Y105D allele; − tazobactam, replicate 1): 1.4 µg/mL
MIC (TEM-1 Y105D allele; − tazobactam, replicate 2): 1.4 µg/mL
MIC (TEM-1 Y105D allele; − tazobactam, replicate 3): 1.4 µg/mL
MIC (TEM-1 Y105S allele; [2]): 16 µg/mL
MIC (TEM-1 Y105S allele; [3]): 16 µg/mL
MIC (TEM-1 Y105S allele; [4]): 16 µg/mL
MIC (TEM-1 Y105S allele; [5]): 16 µg/mL
MIC (TEM-1 Y105S allele; [6]): 1450 µg/mL
MIC (TEM-1 Y105S allele; − tazobactam, replicate 1): 1020 µg/mL
MIC (TEM-1 Y105S allele; − tazobactam, replicate 2): 1450 µg/mL
MIC (TEM-1 Y105S allele; − tazobactam, replicate 3): 1450 µg/mL
MIC (TEM-1 Y105N allele; [2]): 45 µg/mL
MIC (TEM-1 Y105N allele; [3]): 32 µg/mL
MIC (TEM-1 Y105N allele; [4]): 45 µg/mL
MIC (TEM-1 Y105N allele; [5]): 45 µg/mL
MIC (TEM-1 Y105N allele; [6]): 2050 µg/mL
MIC (TEM-1 Y105N allele; − tazobactam, replicate 1): 2050 µg/mL
MIC (TEM-1 Y105N allele; − tazobactam, replicate 2): 2050 µg/mL
MIC (TEM-1 Y105N allele; − tazobactam, replicate 3): 2050 µg/mL
MIC [1, 2]: 1.4 µg/mL
MIC [1, 3]: 1 µg/mL
MIC [1, 4]: 1.4 µg/mL
MIC [1, 5]: 1.4 µg/mL
MIC [1, 6]: 2900 µg/mL
MIC ([1]; − tazobactam, replicate 1): 2900 µg/mL
MIC ([1]; − tazobactam, replicate 2): 2900 µg/mL
MIC ([1]; − tazobactam, replicate 3): 2900 µg/mL
MIC (TEM-1 M69L allele; [2]): 22.6 µg/mL
MIC (TEM-1 M69L allele; [3]): 22.6 µg/mL
MIC (TEM-1 M69L allele; [4]): 32 µg/mL
MIC (TEM-1 M69L allele; [5]): 22.6 µg/mL
MIC (TEM-1 M69L allele; [6]): 2900 µg/mL
MIC (TEM-1 M69L allele; − tazobactam, replicate 1): 2050 µg/mL
MIC (TEM-1 M69L allele; − tazobactam, replicate 2): 2900 µg/mL
MIC (TEM-1 M69L allele; − tazobactam, replicate 3): 2900 µg/mL
MIC (TEM-1 N276D allele; [2]): 1.4 µg/mL
MIC (TEM-1 N276D allele; [3]): 1 µg/mL
MIC (TEM-1 N276D allele; [4]): 1.4 µg/mL
MIC (TEM-1 N276D allele; [5]): 2 µg/mL
MIC (TEM-1 N276D allele; [6]): 2900 µg/mL
MIC (TEM-1 N276D allele; − tazobactam, replicate 1): 2900 µg/mL
MIC (TEM-1 N276D allele; − tazobactam, replicate 2): 2900 µg/mL
MIC (TEM-1 N276D allele; − tazobactam, replicate 3): 2900 µg/mL
